The NIST ThermoML archive (doi:10.1021/je100598x)

Assay: cn = amount concentration of the nth substance listed, in mol/dm3
Conditions: 101 kPa, Liquid, Direct current cell with electrodes

CCCCCCCCCCCC[N+](CCC)(CCC)CCC.[Br-] [dodecyltripropylammonium bromide] + O
electrical conductivity [S/m]
Conditions | 288.15 K | 293.15 K | 298.15 K | 303.15 K | 308.15 K | 313.15 K | 318.15 K
c1 = 0.001055 | 0.00819 | 0.00909 | 0.01006 | 0.01131 | 0.01244 | 0.0137 | 0.0147
c1 = 0.002089 | 0.0153 | 0.01734 | 0.01942 | 0.0217 | 0.0238 | 0.0261 | 0.0282
c1 = 0.003101 | 0.0222 | 0.025 | 0.0282 | 0.0316 | 0.0345 | 0.038 | 0.0412
c1 = 0.004092 | 0.0285 | 0.0326 | 0.0367 | 0.041 | 0.0449 | 0.0496 | 0.0538
c1 = 0.005063 | 0.0346 | 0.0398 | 0.0448 | 0.0501 | 0.0546 | 0.0605 | 0.0657
c1 = 0.006015 | 0.0405 | 0.0467 | 0.0527 | 0.059 | 0.0643 | 0.0712 | 0.0774
c1 = 0.006948 | 0.0461 | 0.0533 | 0.0599 | 0.0675 | 0.0741 | 0.0816 | 0.0886
c1 = 0.007862 | 0.0516 | 0.0594 | 0.0674 | 0.0757 | 0.083 | 0.0912 | 0.0991
c1 = 0.008759 | 0.0566 | 0.0658 | 0.0743 | 0.0832 | 0.0913 | 0.1001 | 0.109
c1 = 0.009639 | 0.0619 | 0.0714 | 0.0804 | 0.0896 | 0.0982 | 0.108 | 0.117
c1 = 0.0105 | 0.0661 | 0.0761 | 0.0846 | 0.0945 | 0.1035 | 0.1136 | 0.1242
c1 = 0.01135 | 0.0702 | 0.0797 | 0.0883 | 0.0984 | 0.108 | 0.118 | 0.13
c1 = 0.01218 | 0.0731 | 0.0825 | 0.0919 | 0.1018 | 0.1117 | 0.1228 | 0.1348
c1 = 0.01319 | 0.0759 | 0.0851 | 0.0953 | 0.106 | 0.116 | 0.128 | 0.1405
c1 = 0.01419 | 0.0783 | 0.0883 | 0.0985 | 0.109 | 0.1203 | 0.1325 | 0.146
c1 = 0.01516 | 0.0806 | 0.0906 | 0.1015 | 0.1128 | 0.1242 | 0.137 | 0.1512
c1 = 0.01657 | 0.0837 | 0.0942 | 0.106 | 0.118 | 0.13 | 0.1433 | 0.157
c1 = 0.01794 | 0.0866 | 0.0976 | 0.11 | 0.1224 | 0.135 | 0.149 | 0.165
c1 = 0.01927 | 0.0895 | 0.1009 | 0.1137 | 0.127 | 0.1404 | 0.155 | 0.1719
c1 = 0.02055 | 0.0921 | 0.1041 | 0.117 | 0.1312 | 0.145 | 0.161 | 0.178
c1 = 0.02179 | 0.0947 | 0.107 | 0.1211 | 0.135 | 0.15 | 0.166 | 0.1843
c1 = 0.023 | 0.0973 | 0.1101 | 0.1245 | 0.139 | 0.1545 | 0.1709 | 0.1906
c1 = 0.02417 | 0.0996 | 0.113 | 0.128 | 0.1433 | 0.159 | 0.175 | 0.196

CCCCCCCCCCCC[N+](CC)(CC)CC.[Br-] [dodecyltriethylammonium bromide] + O
electrical conductivity [S/m]
Conditions | 288.15 K | 293.15 K | 298.15 K | 303.15 K | 308.15 K | 313.15 K | 318.15 K
c1 = 0.001316 | 0.0105 | 0.0119 | 0.0132 | 0.0146 | 0.01605 | 0.0176 | 0.019
c1 = 0.002597 | 0.02 | 0.0226 | 0.0252 | 0.028 | 0.0306 | 0.0335 | 0.0363
c1 = 0.003846 | 0.0289 | 0.0327 | 0.0365 | 0.0406 | 0.0443 | 0.0486 | 0.0526
c1 = 0.005063 | 0.0374 | 0.0423 | 0.0473 | 0.0526 | 0.0573 | 0.0631 | 0.0682
c1 = 0.00625 | 0.0456 | 0.0516 | 0.0576 | 0.0641 | 0.0698 | 0.0768 | 0.0831
c1 = 0.007407 | 0.053 | 0.0604 | 0.0676 | 0.0752 | 0.0819 | 0.09 | 0.0976
c1 = 0.008536 | 0.0609 | 0.0689 | 0.0771 | 0.0859 | 0.0934 | 0.1028 | 0.1114
c1 = 0.009638 | 0.0681 | 0.077 | 0.0862 | 0.0962 | 0.1047 | 0.115 | 0.1247
c1 = 0.01071 | 0.0751 | 0.085 | 0.095 | 0.106 | 0.116 | 0.127 | 0.137
c1 = 0.01177 | 0.0818 | 0.0926 | 0.1035 | 0.115 | 0.126 | 0.139 | 0.15
c1 = 0.01279 | 0.0884 | 0.1 | 0.1116 | 0.1245 | 0.136 | 0.149 | 0.1607
c1 = 0.01379 | 0.0946 | 0.107 | 0.119 | 0.1325 | 0.1445 | 0.159 | 0.173
c1 = 0.01477 | 0.0997 | 0.1119 | 0.1243 | 0.138 | 0.1513 | 0.167 | 0.1822
c1 = 0.01573 | 0.1033 | 0.115 | 0.128 | 0.1426 | 0.156 | 0.1726 | 0.189
c1 = 0.01667 | 0.106 | 0.118 | 0.1315 | 0.146 | 0.1607 | 0.178 | 0.196
c1 = 0.01758 | 0.108 | 0.121 | 0.1345 | 0.15 | 0.165 | 0.1821 | 0.2
c1 = 0.01848 | 0.1105 | 0.1235 | 0.137 | 0.1528 | 0.169 | 0.186 | 0.206
c1 = 0.01936 | 0.1125 | 0.126 | 0.1401 | 0.156 | 0.1721 | 0.1911 | 0.211
c1 = 0.02021 | 0.1144 | 0.128 | 0.1427 | 0.159 | 0.175 | 0.195 | 0.215
c1 = 0.02105 | 0.116 | 0.1303 | 0.145 | 0.1616 | 0.179 | 0.199 | 0.22
c1 = 0.02188 | 0.118 | 0.1324 | 0.148 | 0.1645 | 0.1821 | 0.202 | 0.224
c1 = 0.02268 | 0.12 | 0.1344 | 0.15 | 0.167 | 0.185 | 0.206 | 0.228
c1 = 0.02347 | 0.1215 | 0.136 | 0.1524 | 0.17 | 0.189 | 0.209 | 0.232
c1 = 0.02424 | 0.1231 | 0.138 | 0.1546 | 0.1723 | 0.1916 | 0.213 | 0.236
c1 = 0.025 | 0.125 | 0.1403 | 0.157 | 0.175 | 0.1946 | 0.216 | 0.24
